For `CCCc1cccc(N2CCN(CC[C@H]3CC[C@H](NC(=O)CCCC#N)CC3)CC2)c1` [Example 312, 4-Cyano-N-(4-{2-[4-(3-propylphenyl)piperazin-1-yl]ethyl}cyclohexyl)butanamide], the melting point was 142 °C. `Cl.N#CCCC(=O)N[C@H]1CC[C@H](CCN2CCN(c3cccc(C(F)(F)F)c3)CC2)CC1` showed a melting point of 230 °C. `CCOCC(=O)N[C@H]1CC[C@H](CCN2CC=C(c3ccc(Cl)cc3)CC2)CC1` showed a melting point of 149 °C. Compound `CC(=O)CN1CCC(CCN2CCN(c3ccc(C)c(C#N)c3)CC2)CC1` [Example 464, 2-Methyl-5-(4-{2-[1-(2-oxopropyl)piperidin-4-yl]ethyl}piperazin-1-yl)benzonitrile] has a melting point of 107 °C. `Cl.N#CCCC(=O)N1CCC(CCN2CCN(c3cc(Cl)cc(C(F)(F)F)c3)CC2)CC1` gave a melting point of 128 °C. In the case of `CC(=O)C(=O)N1CCC(CCN2CCN(c3cccc4c3CCC4)CC2)CC1.Cl`, the melting point is reported as 225 °C. Compound `COCc1cccc(N2CCN(CCC3CCN(CC(C)=O)CC3)CC2)c1.Cl.Cl` has a melting point of 255 °C. `CCOCC(=O)N[C@H]1CC[C@H](CCN2CCN(c3cc(C(F)(F)F)cc(C(F)(F)F)c3)CC2)CC1` [Example 108, N-(4-{2-[4-(3,5-Bistrifluoro-methylphenyl)piperazin-1-yl]ethyl}cyclohexyl)-2-ethoxyacetamide] gave a melting point of 135 °C. With `CCc1cccc(N2CCN(CC[C@H]3CC[C@H](NC(=O)CC#N)CC3)CC2)c1` [Example 149, 2-Cyano-N-(4-{2-[4-(3-ethylphenyl)piperazin-1-yl]ethyl}cyclohexyl)acetamide] the melting point was 142 °C. With `N#CCCCC(=O)N[C@H]1CC[C@H](CCN2CC=C(c3ccccc3)CC2)CC1` the melting point was 171 °C. Work on `CSc1cccc(N2CCN(CC[C@H]3CC[C@H](NC(=O)CC#N)CC3)CC2)c1` [Example 182, 2-Cyano-N-(4-{2-[4-(3-methylsulfanylphenyl)piperazin-1-yl]ethyl}cyclohexyl)acetamide] yielded a melting point of 132 °C. Compound `N#Cc1cccc(N2CCN(CC[C@H]3CC[C@H](NC(=O)CC(F)(F)F)CC3)CC2)c1` [Example 511, N-(4-{2-[4-(3-Cyanophenyl)piperazin-1-yl]ethyl}cyclohexyl)-3,3,3-trifluoropropanamide] has a melting point of 180 °C. For `Cc1ccc(N2CCN(CC[C@H]3CC[C@H](NC(=O)CCCC#N)CC3)CC2)cc1Cl` [Example 381, N-(4-{2-[4-(3-Chloro-4-methylphenyl)piperazin-1-yl]ethyl}cyclohexyl)-4-cyanobutanamide], the melting point was 168 °C. In the case of `CCc1cccc(C2=CCN(CC[C@H]3CC[C@H](NC(=O)CCCC#N)CC3)CC2)c1`, the melting point is reported as 147 °C. With `COCC(=O)N[C@H]1CC[C@H](CCN2CCN(c3cccc(C(F)(F)F)c3F)CC2)CC1` [Example 260, N-(4-{2-[4-(2-Fluoro-3-trifluoromethylphenyl)piperazin-1-yl]ethyl}cyclohexyl)-2-methoxyacetamide] the melting point was 142 °C. With `CC(=O)CN1CCC(CCN2CCN(c3ccc(C#N)cc3)CC2)CC1.Cl.Cl` the melting point was 295 °C. For `CCc1ccccc1N1CCN(CC[C@H]2CC[C@H](NC(=O)CC#N)CC2)CC1` [Example 247, 2-Cyano-N-(4-{2-[4-(2-ethylphenyl)piperazin-1-yl]ethyl}cyclohexyl)acetamide], the melting point was 142 to 143 °C. `CCOc1ccccc1N1CCN(CC[C@H]2CC[C@H](NC(=O)CC#N)CC2)CC1` [Example 243, 2-Cyano-N-(4-{2-[4-(2-ethoxyphenyl)piperazin-1-yl]ethyl}cyclohexyl)acetamide] gave a melting point of 138 °C. With `COCC(=O)N[C@H]1CC[C@H](CCN2CCN(c3cccc(C(F)(F)F)c3)CC2)CC1` [Example 41, 2-Methoxy-N-(4-{2-[4-(3-trifluoromethylphenyl)piperazin-1-yl]ethyl}cyclohexyl)acetamide] the melting point was 123 °C. `N#CCCCC(=O)N[C@H]1CC[C@H](CCN2CCN(c3cc(C(F)(F)F)c(Cl)cc3Cl)CC2)CC1` [Example 424, 4-Cyano-N-(4-{2-[4-(2,4-dichloro-5-trifluoromethylphenyl)piperazin-1-yl]ethyl}cyclohexyl)butanamide] gave a melting point of 188 °C. `CSc1ccccc1N1CCN(CCC2CCN(CC(C)=O)CC2)CC1.Cl.Cl` showed a melting point of 280 °C. `COc1cc(N2CCN(CCC3CCN(CC(C)=O)CC3)CC2)cc(C(F)(F)F)c1.Cl.Cl` showed a melting point of 277 to 278 °C. With `CC(=O)NCC(=O)N[C@H]1CC[C@H](CCN2CCN(c3ccccc3)CC2)CC1` [Example 128, 2-Acetylamino-N-{4-[2-(4-phenylpiperazin-1-yl)ethyl]cyclohexyl}acetamide] the melting point was 227 °C. Compound `Cc1cccc(N2CCN(CC[C@H]3CC[C@H](NC(=O)C4CC=CC4)CC3)CC2)c1` [Example 379, Cyclopent-3-enecarboxylic acid {4-[2-(4-m-tolylpiperazin-1-yl)ethyl]cyclohexyl}] has a melting point of 200 °C. For `CCc1cccc(N2CCN(CCC3CCN(CC(C)=O)CC3)CC2)c1.Cl.Cl`, the melting point was 266 °C. With `N#CCCCC(=O)N[C@H]1CC[C@H](CCN2CCN(c3cccc(-c4ncco4)c3)CC2)CC1` [Example 526, 4-Cyano-N-(4-{2-[4-(3-oxazol-2-ylphenyl)piperazin-1-yl]ethyl}cyclohexyl)butanamide] the melting point was 192 °C. With `N#CCCCC(=O)N[C@H]1CC[C@H](CCN2CCN(c3cc(F)c(F)c(F)c3)CC2)CC1` [Example 374, 4-Cyano-N-(4-{2-[4-(3,4,5-trifluorophenyl)piperazin-1-yl]ethyl}cyclohexyl)butanamide] the melting point was 156 °C. `CC(=O)CN1CCC(CCN2CCN(c3cc(F)ccc3F)CC2)CC1` [Example 663, 1-(4-{2-[4-(2,5-Difluorophenyl)piperazin-1-yl]ethyl}piperidin-1-yl)propan-2-one] showed a melting point of 90 °C. `Cl.N#CCCC(=O)N1CCC(CCN2CC=C(c3cc(C(F)(F)F)ccc3F)CC2)CC1` showed a melting point of 150 °C. With `N#CCCCC(=O)N[C@H]1CC[C@H](CCN2CCN(c3cccc(SC(F)(F)F)c3)CC2)CC1` [Example 363, 4-Cyano-N-(4-{2-[4-(3-trifluoromethylsulfanylphenyl)piperazin-1-yl]ethyl}cyclohexyl)butanamide] the melting point was 150 °C. `N#CCCC(=O)N[C@H]1CC[C@H](CCN2CCN(c3ccc(F)c(Cl)c3F)CC2)CC1` [Example 732, N-(4-{2-[4-(3-Chloro-2,4-difluorophenyl)piperazin-1-yl]ethyl}cyclohexyl)-3-cyanopropanamide] gave a melting point of 190 °C. Work on `Cc1ccccc1N1CCN(CC[C@H]2CC[C@H](NC(=O)C3=CCCC3)CC2)CC1` [Example 556, Cyclopent-1-enecarboxylic acid {4-[2-(4-o-tolylpiperazin-1-yl)ethyl]cyclohexyl} amide] yielded a melting point of 181 °C. `COCC(=O)N[C@H]1CC[C@H](CCN2CCN(c3cccc(F)c3F)CC2)CC1` [Example 91, N-(4-{2-[4-(2,3-Difluorophenyl)-piperazin-1-yl]ethyl}cyclohexyl)-2-methoxyacetamide] gave a melting point of 155 °C. With `CC(=O)CN1CCC(CCN2CCN(c3ccc(C)c(F)c3)CC2)CC1.Cl.Cl` the melting point was 276 °C. `CC(=O)CCCN1CCC(CCN2CCN(c3cccc(C(F)(F)F)c3)CC2)CC1.Cl.Cl` gave a melting point of 315 °C. Compound `O=C(N[C@H]1CC[C@H](CCN2CCN(c3ccc(Cl)cc3F)CC2)CC1)C1=CCCC1` [Example 517, Cyclopent-1-enecarboxylic acid (4-{2-[4-(4-chloro-2-fluorophenyl)piperazin-1-yl]ethyl}cyclohexyl) amide] has a melting point of 216 °C. `CC(=O)CN1CCC(CCN2CCN(c3ccc(C)c(C)c3)CC2)CC1.Cl.Cl` showed a melting point of 275 °C. In the case of `N#CCC(=O)N[C@H]1CC[C@H](CCN2CCN(c3ccc(F)c(F)c3F)CC2)CC1` [Example 450, 2-Cyano-N-(4-{2-[4-(2,3,4-trifluorophenyl)piperazin-1-yl]ethyl}cyclohexyl)acetamide], the melting point is reported as 207 °C. `O=C(N[C@H]1CC[C@H](CCN2CCN(c3cccc(F)c3)CC2)CC1)C1=Cc2ccccc2C1` [Example 407, 1H-Indene-2-carboxylic acid (4-{2-[4-(3-fluorophenyl)piperazin-1-yl]ethyl}cyclohexyl) amide] showed a melting point of 242 °C. `NC(=O)CC(=O)N[C@H]1CC[C@H](CCN2CCN(c3cc(C(F)(F)F)cc(C(F)(F)F)c3)CC2)CC1` [Example 738, N-(4-{2-[4-(3,5-Bistrifluoro-methylphenyl)piperazin-1-yl]ethyl}cyclohexyl)malonamide] showed a melting point of 165 °C. `NC(=O)CCC(=O)N[C@H]1CC[C@H](CCN2CCN(c3ccc(F)c(Cl)c3F)CC2)CC1` [Example 602, N-(4-{2-[4-(3-Chloro-2,4-difluorophenyl)piperazin-1-yl]ethyl}cyclohexyl)succinamide] gave a melting point of 257 °C. `COc1cc(OC)cc(N2CCN(CC[C@H]3CC[C@H](NC(=O)CCCC#N)CC3)CC2)c1` [Example 392, 4-Cyano-N-(4-{2-[4-(3,5-dimethoxyphenyl)piperazin-1-yl]ethyl}cyclohexyl)butanamide] gave a melting point of 147 °C. In the case of `N#CCC(=O)N[C@H]1CC[C@H](CCN2CCN(c3cc(C(F)(F)F)cc(C(F)(F)F)c3)CC2)CC1` [Example 107, N-(4-{2-[4-(3,5-Bistrifluoro-methylphenyl)piperazin-1-yl]ethyl}cyclohexyl)-2-cyanoacetamide], the melting point is reported as 196 °C. Compound `N#CCCCC(=O)N[C@H]1CC[C@H](CCN2CCN(c3cccc4c3CCCC4)CC2)CC1` [Example 209, 4-Cyano-N-(4-{2-[4-(5,6,7,8-tetrahydronaphthalen-1-yl)piperazin-1-yl]ethyl}cyclohexyl)butanamide] has a melting point of 148 °C. `O=C(CC(F)(F)F)N[C@H]1CC[C@H](CCN2CCN(c3cc(C(F)(F)F)ccc3F)CC2)CC1` [Example 670, 3,3,3-Trifluoro-N-(4-{2-[4-(2-fluoro-5-trifluoromethylphenyl)piperazin-1-yl]ethyl}cyclohexyl) propanamide] gave a melting point of 177 °C. In the case of `N#CCCC(=O)N[C@H]1CC[C@H](CCN2CCN(c3ccc(F)cc3F)CC2)CC1` [Example 403, 3-Cyano-N-(4-{2-[4-(2,4-difluorophenyl)piperazin-1-yl]ethyl}cyclohexyl)propanamide], the melting point is reported as 165 °C. `O=C(COc1ccccc1)N[C@H]1CC[C@H](CCN2CCN(c3ccccc3F)CC2)CC1` [Example 88, N-(4-{2-[4-(2-Fluorophenyl)-piperazin-1-yl]ethyl}cyclohexyl)-2-phenoxyacetamide] showed a melting point of 172 °C.

— US8802678B2, “Carbonylated (aza) cyclohexanes as dopamine D3 receptor ligands” (Bioprojet, priority 2006, dated 2014)
